# According to the Kinase Knowledgebase extract (Sharma et al. 2016):
# Where “and” joins values, the source holds several entries; their conditions need not be identical. Equal entries are not always repeated.
# What was measured:
# [1] = molecular target: MAPK14 (UniProt Q16539); test: p38-alpha Inhibition
# [2] = tested on: MAPK14 (Lewis rat); test: Adjuvant-Induced Arthritis Model
# [3] = molecular target: MAPK14 (human) (UniProt Q16539); test: p38 --- TNFalpha Release Inhibition; conditions: monocyte
# Chain of MAPK14 (human) (Q16539 whole entry, looked up): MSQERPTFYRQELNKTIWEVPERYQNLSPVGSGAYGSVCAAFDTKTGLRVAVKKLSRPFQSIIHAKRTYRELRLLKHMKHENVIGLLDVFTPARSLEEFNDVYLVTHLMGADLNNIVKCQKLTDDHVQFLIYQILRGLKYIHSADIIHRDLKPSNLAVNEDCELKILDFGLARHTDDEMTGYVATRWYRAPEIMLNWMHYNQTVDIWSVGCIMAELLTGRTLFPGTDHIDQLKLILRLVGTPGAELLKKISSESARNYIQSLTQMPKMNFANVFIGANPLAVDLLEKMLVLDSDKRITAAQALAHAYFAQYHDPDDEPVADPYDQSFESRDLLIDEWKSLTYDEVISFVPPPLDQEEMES
# Chain of MAPK14 (Q16539 whole entry, looked up): as above
smiles,measurement,setting,value
CCOC(=O)c1ccc(-c2[nH]c(-c3ccccc3)cc2-c2ccncc2)cc1,IC50,[1],> 10 µM
Fc1ccc(-c2[nH]c(-c3ccc(Br)cc3)cc2-c2ccncc2)cc1,IC50,[1],0.1 µM
COc1ccc2c(c1)c(CC(=O)O)c(C)n2C(=O)c1ccc(Cl)cc1,score,[2],4.9 and 2.9
C[S+]([O-])c1ccc(-c2cc(-c3ccncc3)c(-c3ccc(F)cc3)[nH]2)cc1 (stereo not given),IC50,[3],0.065 µM
same,ID50,[2],7.4 mg/kg/day
same,score,[2],3.6 and 1.6
Fc1ccc(-c2[nH]c(-c3ccc(Cl)cc3)cc2-c2ccccn2)cc1,IC50,[1],> 10 µM
CS(=O)(=O)c1ccc(-c2cc(-c3ccncc3)c(-c3ccc(F)cc3)[nH]2)cc1,IC50,[3],0.023 µM
O=c1c(-c2ccncc2)c(-c2ccc(F)cc2)[nH]n1-c1ccc(Cl)cc1,inhibition,[1]; concentration not given here,43%
CC(C)(C)Oc1ccc(-c2[nH]c(-c3ccccc3)cc2-c2ccncc2)cc1,IC50,[1],> 1 µM
